# According to publication PMC11093748, “De novo identification of CD4^+ T cell epitopes” (Nature Methods, 2024):
# How the values were obtained:
# Assay type in all cases: cell-based, mouse
# TCR15 = assay: Single SABR-II co-incubation, NFAT-GFP Jurkat; settings: TCR 15, Fig 3B, 18 h
# Summary of the method: (§1)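 Single SABR-II constructs for putative cognate epitopes were expressed in CellTrace Violet-labelled NFAT–GFP Jurkat cells and co-incubated 1:1 (5 × 10^5 each) with TCR-expressing Jurkat cells for 16–20 h. GFP (with CD69 staining when indicated) was measured by flow cytometry. Wells with GFP above the no-TCR control were scored positive.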
# TCR 4 Analog 2 = assay: Single SABR-II co-incubation, TCR analogs; settings: Fig 4B
# From the text: (§2) We hypothesized that computational grouping of TCR specificities may reveal closely related TCRs that potentially recognize the same epitope(s), similar to the reverse epitope discovery approach (Fig. 4a). In the absence of experimental antigen discovery, grouping of TCRs is not informative of reactivity; however, we hypothesized that TCRs that co-clustered with SABR-II de-convoluted TCRs bind to the same antigens. To test this, we used three TCR-similarity search algorithms: GLIPH2 (refs. [38],[69]), tcrdist3 (ref. [37]) and CoNGA[39]. All three algorithms take slightly different approaches to group TCR sequences and generate clusters of TCR sequences that share high sequence similarity. In addition, CoNGA considers the transcriptional similarities among T cell clones. Using CoNGA, we defined TCR clusters for two TCRs, TCR4 and TCR6B, and identified analogs that slightly differed in sequences. Moreover, for TCR30, we were able to identify six TCR analogs that co-clustered in CoNGA analysis as well as GLIPH2. For TCR11, we first identified a gene expression (GEX) cluster that had ~50 TCRs that clustered based on gene expression. Using tcrdist3, we calculated the relative distance of each of these TCRs from TCR11 and selected the top seven clonotypes for expression. Together, 16 TCRs were identified as analogs of the experimentally de-convoluted TCRs (Extended Data Fig. 8). These TCRs were cloned and expressed in Jurkat cells. We performed co-incubation assays using single SABR-IIs and observed that 5 of 16 TCRs recognized the same epitopes as the parental TCRs (Fig. 4b). As a result, we were able to identify the cognate epitopes of five additional TCRs from our dataset that had otherwise not been selected for SABR-II screening based on our clonal expansion cutoff.
# (§3) Exported clonotypes were used as inputs for GLIPH2 (ref. [69]). For CoNGA, the merged dataset was exported as a .h5ad file and used as an input along with the CellRanger vdj output file. CoNGA analysis was performed using default parameters. Pairwise relative distances among TCRs were calculated using tcrdist3 (ref. [37]). CoNGA, tcrdist3 and GLIPH2 output files were searched manually for analogs that co-cluster with experimentally de-convoluted TCRs. Analogs were synthesized and cloned as described above.
# (§4) For SABR library screens, 3 × 10^6 NFAT–GFP Jurkat cells expressing the SABR library were labeled with CellTrace Violet (BioLegend) according to the manufacturer’s protocol before incubation with 3 × 10^6 Jurkat cells expressing the TCR of interest. These mixtures were incubated in a six-well plate for 16–20 h. Cells were stained with anti-CD69-APC-Cy7 where indicated (BioLegend) and the top 1–2% of GFP^+CD69^+ cells were sorted for genomic DNA extraction, indexing and sequencing (see below). Multiplexed assays were scaled on a per-TCR basis (for example 3 × 10^6 for each of three TCRs against 9 × 10^6 library cells). For single SABR assays, unless otherwise defined, 5 × 10^5 SABR expressing NFAT–GFP Jurkat cells (or 5KC cells) were labeled with CellTrace Violet (BioLegend) according to the manufacturer’s protocol before incubation with 5 × 10^5 TCR-expressing Jurkat cells (or 5KC cells) in a round-bottom 96-well plate for 16–20 h. Cells were stained with anti-CD69-APC-Cy7 when indicated and acquired on the Attune NxT flow cytometer (Thermo Fisher Scientific). All flow analysis was performed using FlowJo (BD). For Daudi cell co-culture, 1 × 10^6 Jurkat cells expressing the TCR of interest were incubated with 1 × 10^6 Daudi cells expressing a SABR of interest for 3 days. On day 3, cells were labeled with anti-RT1B-PE and anti-Fas-APC-Cy7 before being acquired on the Attune NxT flow cytometer.
# TCR24 = assay: Single SABR-II co-incubation, NFAT-GFP Jurkat; settings: TCR 24, Fig 3B, 18 h
# Summary of the method: as §1
# TCR 11 Analog 1 = assay: Single SABR-II co-incubation, TCR analogs; settings: Fig 4B
# From the text: as §2, §3, §4
# TCR 11 Analog 2 = assay: Single SABR-II co-incubation, TCR analogs; settings: Fig 4B
# From the text: as §2, §3, §4
# TCR 11 Analog 3 = assay: Single SABR-II co-incubation, TCR analogs; settings: Fig 4B
# From the text: as §2, §3, §4
# TCR 11 Analog 4 = assay: Single SABR-II co-incubation, TCR analogs; settings: Fig 4B
# From the text: as §2, §3, §4
# TCR 30 Analog 3 = assay: Single SABR-II co-incubation, TCR analogs; settings: Fig 4B
# From the text: as §2, §3, §4
# TCR 30 Analog 4 = assay: Single SABR-II co-incubation, TCR analogs; settings: Fig 4B
# From the text: as §2, §3, §4
sequence,measurement,setting,value
LQTLALNAARDP,%GFP+CD69+ cells of SABR-NFAT-GFP-Jurkat cells,TCR15; biological replicate 1,39.97%
same,%GFP+CD69+ cells of SABR-NFAT-GFP-Jurkat cells,TCR15; biological replicate 2,41.2%
same,%GFP+CD69+ cells of SABR-NFAT-GFP-Jurkat cells,TCR15; biological replicate 3,48.23%
same,%GFP+CD69+ cells of SABR-NFAT-GFP-Jurkat cells,TCR 4 Analog 2; technical replicate 1,1%
same,%GFP+CD69+ cells of SABR-NFAT-GFP-Jurkat cells,TCR 4 Analog 2; technical replicate 2,0.84%
SHLVEALYLVCGERG,%GFP+CD69+ cells of SABR-NFAT-GFP-Jurkat cells,TCR24; biological replicate 1,14.87%
same,%GFP+CD69+ cells of SABR-NFAT-GFP-Jurkat cells,TCR24; biological replicate 2,17.6%
same,%GFP+CD69+ cells of SABR-NFAT-GFP-Jurkat cells,TCR24; biological replicate 3,16.8%
same,%GFP+CD69+ cells of SABR-NFAT-GFP-Jurkat cells,TCR 11 Analog 1; technical replicate 1,0.66%
same,%GFP+CD69+ cells of SABR-NFAT-GFP-Jurkat cells,TCR 11 Analog 1; technical replicate 2,0.81%
same,%GFP+CD69+ cells of SABR-NFAT-GFP-Jurkat cells,TCR 11 Analog 2; technical replicate 1,17.2%
same,%GFP+CD69+ cells of SABR-NFAT-GFP-Jurkat cells,TCR 11 Analog 2; technical replicate 2,16.8%
same,%GFP+CD69+ cells of SABR-NFAT-GFP-Jurkat cells,TCR 11 Analog 3; technical replicate 1,0.85%
same,%GFP+CD69+ cells of SABR-NFAT-GFP-Jurkat cells,TCR 11 Analog 3; technical replicate 2,1.04%
same,%GFP+CD69+ cells of SABR-NFAT-GFP-Jurkat cells,TCR 11 Analog 4; technical replicate 1,0.89%
same,%GFP+CD69+ cells of SABR-NFAT-GFP-Jurkat cells,TCR 11 Analog 4; technical replicate 2,0.88%
same,%GFP+CD69+ cells of SABR-NFAT-GFP-Jurkat cells,TCR 30 Analog 3; replicate 1,1.16%
same,%GFP+CD69+ cells of SABR-NFAT-GFP-Jurkat cells,TCR 30 Analog 3; replicate 2,1.27%
same,%GFP+CD69+ cells of SABR-NFAT-GFP-Jurkat cells,TCR 30 Analog 3; replicate 3,1.1%
same,%GFP+CD69+ cells of SABR-NFAT-GFP-Jurkat cells,TCR 30 Analog 4; replicate 1,1.2%
same,%GFP+CD69+ cells of SABR-NFAT-GFP-Jurkat cells,TCR 30 Analog 4; replicate 2,1.13%
same,%GFP+CD69+ cells of SABR-NFAT-GFP-Jurkat cells,TCR 30 Analog 4; replicate 3,1.05%
